This note sets out measurements from article PMC9230575, “^68Ga-Labeled [Leu^13ψThz^14]Bombesin(7–14) Derivatives: Promising GRPR-Targeting PET Tracers with Low Pancreas Uptake” (Molecules, 2022).

*1 amine or outer side, *2 acyl side, *3 side chain or, on linkers, in order; H or OH if unused. Where a SMILES comes first, the peptide text is derived from it. [ ]: non-standard residue; d: D form. The star is where a group is joined. DOTA = O=C(O)CN1CCN(CC(=O)O)CCN(CC(=O)*)CCN(CC(=O)O)CC1; Leuψ(CH2N)ThzNH2 = CC(C)C[C@@H](CN1CSC[C@H]1C(N)=O)N*; d2Nal = N[C@H](Cc1ccc2ccccc2c1)C(=O)O; Cya = N[C@@H](CS(=O)(=O)O)C(=O)O; X1 = O=C(CN1CCC(N[*:1])CC1)[*:2]

One data set has as its target T1, GRPR (Homo sapiens, UniProt P30550).
T1 construct: endogenous in cells; host or cells: PC-3 prostate cancer cells
The data set is described as follows: Fluorometric intracellular calcium release assay using PC-3 cells. In kind it is cell-based. The settings on record: 50 nM ligand. The procedure: Following previously published procedures, 5 × 10^4 PC-3 cells were seeded in 96-well clear-bottom black plates 24 h prior to the assay. The growth medium was removed and replaced with a loading buffer containing a calcium-sensitive dye (FLIPR Calcium 6 assay kit, Molecular Device, San Jose, CA, USA). After incubation at 37 °C for 30 min, the plates were placed in a FlexStation 3 microplate reader (Molecular Devices). […] Agonistic/antagonistic properties were determined using the relative fluorescent unit (RFU = max–min).
(In general: Calcium flux is commonly read through the fluorescence of an indicator in the cells.)

Another data set in a line: physchem. To be noted: 1-octanol/phosphate buffer, pH 7.4. Here is the method: Briefly, aliquots (2 μL) of the ^68Ga-labeled peptides were added to a vial containing 3 mL of 1-octanol and 3 mL of 0.1 M phosphate buffer (pH 7.4). The mixture was vortexed for 1 min and then centrifuged at 5000 rpm for 10 min. Samples of the 1-octanol (1 mL) and buffer (1 mL) layers were taken and counted in a gamma counter. LogD7.4 was calculated using the following equation: LogD7.4 = log10[(counts in 1-octanol phase)/(counts in buffer phase)].

The subject of data set [1] is PC-3 tumor xenografts. The data set is described as follows: Ex vivo biodistribution in PC-3 tumor-bearing mice. To be noted: 1 h post-injection, n = 4. The procedure: For biodistribution studies, the mice (n = 4) were injected with the radiotracer (~2–4 MBq, 0.03–0.07 nmol) as described above. […] At 1 h post-injection, the mice were euthanized by CO2 inhalation. Blood was withdrawn by cardiac puncture, and organs/tissues of interest were collected, weighed and counted using a Perkin Elmer (Waltham, MA, USA) Wizard2 2480 automatic gamma counter.

For data set [2] the following is noted: for Fraction remaining intact in plasma: NRG mice, 15 min post-injection, n = 3; for Intact tracer in urine: mouse urine samples collected at 15 min post-injection. Here is the method:
Imaging, biodistribution, and in vivo stability studies were performed using male NOD.Cg-Rag1^tm1Mom Il2rg^tm1Wjl/SzJ (NRG) mice (from in-house breeding colonies) following previously published procedures. […] When the tumor grew to 5–8 mm in diameter over 3–4 weeks, the mice were used for PET/CT imaging and biodistribution studies.
At 15 min post-injection, the mice were sedated and euthanized, and urine and blood were collected. The plasma was extracted from whole blood by the addition of CH3CN (500 μL), vortexing, centrifugation, and the separation of the supernatants. The plasma and urine samples were analyzed via radio-HPLC by using the conditions for quality control of these ^68Ga-labeled radioligands (Table S3).

Data set [3] concerns PC-3 tumor xenografts. Put plainly: PET/CT imaging of mice bearing PC-3 tumor xenografts. In kind it is in vivo. To be noted: 1 h post-injection. The procedure: The PET/CT imaging experiments were carried out using a Siemens (Knoxville, TN, USA) Inveon micro-PET/CT scanner. […] At 50 min post-injection, a 10 min CT scan was conducted: first for localization and attenuation corrections after segmentation for reconstructing the PET images, followed by a 10 min static PET imaging acquisition.

T1 sequence (P30550 whole entry): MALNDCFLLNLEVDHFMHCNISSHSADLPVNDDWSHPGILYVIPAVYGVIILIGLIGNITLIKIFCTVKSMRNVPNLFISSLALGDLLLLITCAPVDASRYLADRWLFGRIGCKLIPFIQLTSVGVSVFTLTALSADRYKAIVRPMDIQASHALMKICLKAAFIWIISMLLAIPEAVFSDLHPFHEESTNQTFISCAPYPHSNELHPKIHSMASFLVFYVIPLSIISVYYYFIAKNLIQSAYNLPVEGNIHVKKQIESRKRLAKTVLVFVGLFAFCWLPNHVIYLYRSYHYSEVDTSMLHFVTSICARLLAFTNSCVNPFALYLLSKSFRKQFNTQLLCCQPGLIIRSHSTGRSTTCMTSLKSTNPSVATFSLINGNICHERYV

Regarding `Nc1ncnc2c1ncn2[C@@H]1O[C@H](COP(=O)(O)OP(=O)(O)OP(=O)(O)O)[C@@H](O)[C@H]1O` [ATP, adenosine triphosphate], the “Ca2+ efflux (relative fluorescence units, max-min)” value at GRPR is given as 334 ± 39.0 RFU.

On to `CC(C)C[C@@H](CN1CSC[C@H]1C(N)=O)NC(=O)[C@H](Cc1c[nH]cn1)NC(=O)CNC(=O)[C@@H](NC(=O)[C@H](C)NC(=O)[C@H](Cc1c[nH]c2ccccc12)NC(=O)[C@H](CCC(N)=O)NC(=O)[C@H]1Cc2c([nH]c3ccccc23)CN1C(=O)CN1CCC(NC(=O)CN2CCN(CC(=O)O)CCN(CC(=O)O)CCN(CC(=O)O)CC2)CC1)C(C)C` [Ga-TacsBOMB4], for which the “Ca2+ efflux (relative fluorescence units, max-min)” value at GRPR came out at 9.30 ± 3.74 RFU.

Consider `CC(C)C[C@@H](CN1CSC[C@H]1C(N)=O)NC(=O)[C@H](Cc1c[nH]cn1)NC(=O)CNC(=O)[C@@H](NC(=O)[C@H](C)NC(=O)[C@H](Cc1c[nH]c2ccccc12)NC(=O)[C@H](CCC(N)=O)NC(=O)[C@@H](Cc1ccc2ccccc2c1)NC(=O)CN1CCC(NC(=O)[C@H](CS(=O)(=O)O)NC(=O)CN2CCN(CC(=O)O)CCN(CC(=O)O)CCN(CC(=O)O)CC2)CC1)C(C)C` [Ga-TacsBOMB6] ({DOTA}-[Cya][X1][d2Nal]QWAVGH-{Leuψ(CH2N)ThzNH2}), for which the “Ca2+ efflux (relative fluorescence units, max-min)” value on GRPR is 23.0 ± 0.06 RFU.

For the compound `CC(C)C[C@H](NC(=O)C[C@H](O)[C@H](CC(C)C)NC(=O)[C@H](Cc1c[nH]cn1)NC(=O)CNC(=O)[C@@H](NC(=O)[C@H](C)NC(=O)[C@H](Cc1c[nH]c2ccccc12)NC(=O)[C@H](CCC(N)=O)NC(=O)[C@@H](Cc1ccccc1)NC(=O)CN1CCC(NC(=O)CN2CCN(CC(=O)O)CCN(CC(=O)O)CCN(CC(=O)O)CC2)CC1)C(C)C)C(N)=O` [[^68Ga]Ga-RM2, metal not drawn, reference compound], the logD in the data set “physchem” was -2.76 ± 0.03. The compound further came in with a Spleen uptake with PC-3 tumor xenografts [1] of 0.44 ± 0.26 %ID/g. Also, in data set [2], the “Fraction remaining intact in plasma” value is given as 71.9 ± 10.4% and the “Intact tracer in urine” value is “no intact”. Also, the “Excretion pathway in PET images” value with PC-3 tumor xenografts [3] was “primarily excreted through the renal pathway”.

Turning to `CC(C)C[C@@H](CN1CSC[C@H]1C(N)=O)NC(=O)[C@H](Cc1c[nH]cn1)NC(=O)CNC(=O)[C@@H](NC(=O)[C@H](C)NC(=O)[C@H](Cc1c[nH]c2ccccc12)NC(=O)[C@H](CCC(N)=O)NC(=O)[C@@H](Cc1ccccc1)NC(=O)CN1CCC(NC(=O)CN2CCN(CC(=O)O)CCN(CC(=O)O)CCN(CC(=O)O)CC2)CC1)C(C)C` [[^68Ga]Ga-TacsBOMB2, metal not drawn], in the data set “physchem”, the logD was -2.39 ± 0.13. In data set [2], the “Fraction remaining intact in plasma” value was determined as 83.3 ± 1.45% and the “Intact tracer in urine” value was “no intact”. For the same compound, the “Excretion pathway in PET images” value with PC-3 tumor xenografts [3] is “primarily excreted through the renal pathway”.

The compound `CC(C)C[C@@H](CN1CSC[C@H]1C(N)=O)NC(=O)[C@H](Cc1c[nH]cn1)NC(=O)CNC(=O)[C@@H](NC(=O)[C@H](C)NC(=O)[C@H](Cc1c[nH]c2ccccc12)NC(=O)[C@H](CCC(N)=O)NC(=O)[C@@H](Cc1ccc2ccccc2c1)NC(=O)CN1CCC(NC(=O)CN2CCN(CC(=O)O)CCN(CC(=O)O)CCN(CC(=O)O)CC2)CC1)C(C)C` [[^68Ga]Ga-TacsBOMB3, metal not drawn] displayed a pH-dependent lipophilicity (logD) in “physchem” of -1.75 ± 0.04. The “Excretion pathway in PET images” value in the data set with PC-3 tumor xenografts [3] is listed as “primarily excreted through the renal pathway”.

As for `CC(C)C[C@@H](CN1CSC[C@H]1C(N)=O)NC(=O)[C@H](Cc1c[nH]cn1)NC(=O)CNC(=O)[C@@H](NC(=O)[C@H](C)NC(=O)[C@H](Cc1c[nH]c2ccccc12)NC(=O)[C@H](CCC(N)=O)NC(=O)[C@@H](Cc1ccc2ccccc2c1)NC(=O)CN1CCC(NC(=O)[C@H](CS(=O)(=O)O)NC(=O)CN2CCN(CC(=O)O)CCN(CC(=O)O)CCN(CC(=O)O)CC2)CC1)C(C)C` [[^68Ga]Ga-TacsBOMB6, metal not drawn] ({DOTA}-[Cya][X1][d2Nal]QWAVGH-{Leuψ(CH2N)ThzNH2}), the logD in “physchem” is -2.55 ± 0.16. In the data set on PC-3 tumor xenografts [3], the “Excretion pathway in PET images” value was “primarily excreted through the renal pathway”.

On to “[D-Phe^6,Leu-NHEt^13,des-Met^14]Bombesin(6–14)”, for which, on GRPR, the “Ca2+ efflux (relative fluorescence units, max-min)” value was found to be 25.3 ± 1.92 RFU.

For bombesin, on GRPR, the “Ca2+ efflux (relative fluorescence units, max-min)” value was found to be 754 ± 38.3 RFU.

In general, logD refers to lipophilicity at a set pH, counting ionised and neutral species. Read a high logD as a more lipophilic compound.
